Test [1] concerns the target T1, Amine oxidase [flavin-containing] B (Rattus norvegicus, UniProt P19643).
T1 sequence (P19643 whole entry): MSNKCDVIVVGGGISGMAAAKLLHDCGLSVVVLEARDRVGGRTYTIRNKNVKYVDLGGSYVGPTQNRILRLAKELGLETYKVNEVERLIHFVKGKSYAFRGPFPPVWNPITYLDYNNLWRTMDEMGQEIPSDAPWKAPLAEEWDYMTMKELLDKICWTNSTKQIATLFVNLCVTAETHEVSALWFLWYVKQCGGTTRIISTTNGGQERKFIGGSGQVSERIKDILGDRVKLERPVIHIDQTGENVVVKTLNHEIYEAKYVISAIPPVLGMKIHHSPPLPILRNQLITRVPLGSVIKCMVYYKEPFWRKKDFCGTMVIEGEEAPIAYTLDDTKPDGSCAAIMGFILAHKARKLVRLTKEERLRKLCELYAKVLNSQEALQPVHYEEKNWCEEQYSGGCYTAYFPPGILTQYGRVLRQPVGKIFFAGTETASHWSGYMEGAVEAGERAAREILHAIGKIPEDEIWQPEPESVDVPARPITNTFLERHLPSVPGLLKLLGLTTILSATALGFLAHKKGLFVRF
Nature of the test: Monoamine Oxidase Assay. The settings on record: pH 7.4; 38 °C.

The target in test [2] is T2, Amine oxidase [flavin-containing] A (Rattus norvegicus, UniProt P21396).
T2 sequence (P21396 whole entry): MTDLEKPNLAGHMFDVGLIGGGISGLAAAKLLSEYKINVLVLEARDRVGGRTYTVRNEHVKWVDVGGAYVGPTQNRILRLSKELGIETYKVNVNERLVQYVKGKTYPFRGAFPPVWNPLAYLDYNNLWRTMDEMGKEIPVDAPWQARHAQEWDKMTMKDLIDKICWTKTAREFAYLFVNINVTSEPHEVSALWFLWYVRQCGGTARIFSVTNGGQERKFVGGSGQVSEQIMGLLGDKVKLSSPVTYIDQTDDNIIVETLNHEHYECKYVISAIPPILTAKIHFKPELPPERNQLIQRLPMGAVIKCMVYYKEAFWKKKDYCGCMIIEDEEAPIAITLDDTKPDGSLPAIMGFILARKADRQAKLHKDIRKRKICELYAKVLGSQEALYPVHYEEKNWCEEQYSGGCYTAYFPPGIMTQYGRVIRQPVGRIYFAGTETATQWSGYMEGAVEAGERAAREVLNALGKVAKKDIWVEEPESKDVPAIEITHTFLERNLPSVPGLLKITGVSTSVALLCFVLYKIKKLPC
Description: Monoamine Oxidase Assay. The following applies: pH 7.4; 38 °C.

For test [3], the target named is Carboxylic ester hydrolase (Equus caballus, UniProt Q9N1N9). Nature of the test: AChE and BuChE Inhibition Assay. The settings on record: pH 8; 25 °C. As for the experimental part:
(§1) This spectrophotometric assay is based on the reaction of 5,5-dithio-bis(2-nitrobenzoic)acid (DTNB) with thiocholine to yield a colored product. Shimadzu (Kyoto, Japan) UV-1700 UV-vis spectrophotometer was used to record the measurements. The enzyme solutions were prepared at 2.5 units/mL concentrationin 1% gelatin solution. BChE/AChE and compound solutions (50 μL each) in 2% DMSO at 10^-1-10^-6 mM concentration were added to 3 mL phosphate buffer (pH 8 &plusnm; 0.1)followed by incubation for 5 min at 25 °C. The reaction was commenced by the addition of acetylthiocholine iodide (ATC) (10 μL) and DTNB (50 μL) to the enzyme-inhibitor mixture. […] The blank reading contained 10 μL substrate, 50 μL DTNB, 50 μL (2%) DMSO, and 3 mL buffer. The reaction was performed in triplicate.

The target of test [4] is Acetylcholinesterase (Electrophorus electricus, UniProt O42275). Nature of the test: AChE and BuChE Inhibition Assay. The settings on record: pH 8; 25 °C. As for the experimental part: as §1

Bounds are passed on as bounds.

Sequence of Carboxylic ester hydrolase (Q9N1N9 whole entry): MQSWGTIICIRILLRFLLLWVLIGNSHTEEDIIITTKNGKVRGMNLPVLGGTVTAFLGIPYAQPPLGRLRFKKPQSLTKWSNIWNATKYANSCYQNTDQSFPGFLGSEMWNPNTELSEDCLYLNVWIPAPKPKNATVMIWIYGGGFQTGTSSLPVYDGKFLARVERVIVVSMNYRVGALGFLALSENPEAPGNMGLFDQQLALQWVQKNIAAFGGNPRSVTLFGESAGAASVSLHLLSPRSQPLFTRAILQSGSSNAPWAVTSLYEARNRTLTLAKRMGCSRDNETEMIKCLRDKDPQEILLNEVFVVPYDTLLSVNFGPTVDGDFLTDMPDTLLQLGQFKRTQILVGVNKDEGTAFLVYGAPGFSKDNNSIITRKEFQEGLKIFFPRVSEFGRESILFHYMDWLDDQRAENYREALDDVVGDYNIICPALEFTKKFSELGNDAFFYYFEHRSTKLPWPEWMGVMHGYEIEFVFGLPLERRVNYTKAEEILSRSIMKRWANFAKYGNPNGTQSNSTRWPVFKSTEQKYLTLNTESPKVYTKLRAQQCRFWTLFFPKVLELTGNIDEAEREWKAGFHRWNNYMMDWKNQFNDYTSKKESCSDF
Sequence of Acetylcholinesterase (O42275 whole entry): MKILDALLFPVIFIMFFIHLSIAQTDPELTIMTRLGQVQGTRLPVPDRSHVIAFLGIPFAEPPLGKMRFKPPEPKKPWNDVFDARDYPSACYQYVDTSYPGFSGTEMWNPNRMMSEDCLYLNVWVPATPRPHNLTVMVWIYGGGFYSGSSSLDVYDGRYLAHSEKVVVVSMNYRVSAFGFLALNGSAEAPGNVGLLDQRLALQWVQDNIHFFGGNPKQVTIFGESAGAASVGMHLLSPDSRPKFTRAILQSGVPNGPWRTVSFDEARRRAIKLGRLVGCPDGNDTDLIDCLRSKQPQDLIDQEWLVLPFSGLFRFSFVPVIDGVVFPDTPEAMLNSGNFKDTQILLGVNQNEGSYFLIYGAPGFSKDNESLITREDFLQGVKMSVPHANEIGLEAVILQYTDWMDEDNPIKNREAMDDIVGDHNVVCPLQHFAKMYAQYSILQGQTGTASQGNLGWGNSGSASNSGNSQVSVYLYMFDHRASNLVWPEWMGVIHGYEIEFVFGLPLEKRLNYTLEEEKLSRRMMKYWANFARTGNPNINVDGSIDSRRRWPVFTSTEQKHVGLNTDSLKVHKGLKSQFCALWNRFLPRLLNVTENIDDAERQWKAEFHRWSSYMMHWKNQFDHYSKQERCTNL

The IC50 is the concentration that gives 50% inhibition. High values mean weaker potency in that assay, low ones greater potency in that assay. For `COc1cc(/C=C2\CC(C)c3ccccc3C2=O)c(Br)c(OC)c1OC` (centres undefined) [2-(2-Bromo-3,4,5-trimethoxy-benzylidene)-4-methyl-tetralone (3f)], the IC50 in test [1] turned out to be 0.88 µM; in test [2] it was 0.92 µM; in test [3] it was 12.5 µM; in test [4] it was 0.045 µM.

In the case of `COc1ccc(OC)c2c1CC/C(=C\c1cc(OC)c(OC)c(OC)c1Br)C2=O` [2-(2-Bromo-3,4,5-trimethoxy-benzylidene)-5,8-dimethoxy-tetralone (3x)], the 50% inhibitory concentration (IC50) was more than 100 µM in test [1], more than 100 µM in test [2], 9.8 µM in test [3] and 0.27 µM in test [4].

For the molecule `COc1ccc2c(c1)CC/C(=C\c1cc(OC)c(OC)c(OC)c1Br)C2=O` [2-(2-Bromo-3,4,5-trimethoxy-benzylidene)-6-methoxy-tetralone (3o)], the IC50 in test [1] stood at 12.4 µM; in test [2], 32.2 µM; in test [3], 17.5 µM; in test [4], 1.2 µM.

`COc1cc(/C=C2\CCc3ccc([N+](=O)[O-])cc3C2=O)c(Br)c(OC)c1OC` [2-(2-Bromo-3,4,5-trimethoxy-benzylidene)-7-nitro-tetralone (3ag)]: the IC50 in test [1] is 0.91 µM; in test [2] it was 0.99 µM; in test [3] it was 6.2 µM; in test [4] it was 0.57 µM.

Consider `COc1ccc(/C=C2\CCc3ccc([N+](=O)[O-])cc3C2=O)c(Cl)c1OC` [2-(2-Chloro-3,4-dimethoxy-benzylidene)-7-nitro-tetralone (3af)], for which the half-maximal inhibitory concentration (IC50) in test [1] amounted to 2.9 µM; in test [2], 1.24 µM; in test [3], 17.5 µM; in test [4] it was 2.92 µM.

On to `COc1cc(/C=C2\CCc3ccccc3C2=O)c(Br)c(OC)c1OC` [(2E)-2-[(2-bromo-3,4,5-trimethoxyphenyl)methylidene]-1,2,3,4-tetrahydronaphthalen-1-one (3c)], for which the IC50 in test [1] is 5.6 µM; in test [2] it was 27.3 µM; in test [3] it was more than 100 µM; in test [4], 12.4 µM.

As to `COc1cc(/C=C2\CCc3c(O)cccc3C2=O)c(Br)c(OC)c1OC` [(2E)-2-[(2-bromo-3,4,5-trimethoxyphenyl)methylidene]-5-hydroxy-1,2,3,4-tetrahydronaphthalen-1-one (3i)], the IC50 was 37.2 µM in test [1], more than 100 µM in test [2], 76.9 µM in test [3] and more than 100 µM in test [4].

For the molecule `COc1cccc2c1CC/C(=C\c1cc(OC)c(OC)c(OC)c1Br)C2=O` [(2E)-2-[(2-bromo-3,4,5-trimethoxyphenyl)methylidene]-5-methoxy-1,2,3,4-tetrahydronaphthalen-1-one (3r)], the IC50 is 56 µM in test [1], more than 100 µM in test [2], 92.5 µM in test [3] and 67.2 µM in test [4].

For the molecule `COc1cc2c(cc1OC)C(=O)/C(=C/c1cc(OC)c(OC)c(OC)c1Br)CC2` [(2E)-2-[(2-bromo-3,4,5-trimethoxyphenyl)methylidene]-6,7-dimethoxy-1,2,3,4-tetrahydronaphthalen-1-one (3u)], the IC50 is 2.9 µM in test [1], more than 100 µM in test [2], more than 100 µM in test [3] and 4.5 µM in test [4].

`COc1cc(/C=C2\CCc3ccc(Cl)cc3C2=O)c(Br)c(OC)c1OC` [(2E)-2-[(2-bromo-3,4,5-trimethoxyphenyl)methylidene]-7-chloro-1,2,3,4-tetrahydronaphthalen-1-one (3l)]: the 50% inhibitory concentration (IC50) in test [1] was more than 100 µM; in test [2] it was more than 100 µM; in test [3], 48.9 µM; in test [4], more than 100 µM.

`COc1cc(/C=C2\CCc3ccc(F)cc3C2=O)c(Br)c(OC)c1OC` [(2E)-2-[(2-bromo-3,4,5-trimethoxyphenyl)methylidene]-7-fluoro-1,2,3,4-tetrahydronaphthalen-1-one (3ad)]: the IC50 in test [1] was 1.2 µM; in test [2] it was 10.9 µM; in test [3], 89.4 µM; in test [4] it was more than 100 µM.

Values taken from BindingDB's records for doi:10.1111/cbdd.12822 (Wuhan University of Technology, 2016).
